What was measured:
[1] = 4-week oral toxicity study in rats; conditions: 103 or 1030 mg lanthanum/kg/day for 4 weeks
Description: A study was conducted to assess the toxicity of lanthanum hydroxycarbonate. Rats were dosed orally with lanthanum hydroxycarbonate (103 or 1030 mg lanthanum/kg/day), lanthanum carbonate tetrahydrate (103 or 1030 mg lanthanum/kg/day) or vehicle for 4 weeks.

[2] = In vitro phosphorus binding of lanthanum compounds
Description: In order to evaluate the efficacy of lanthanum hydroxycarbonate as a phosphate binder, the in vitro phosphorus binding of lanthanum hydroxycarbonate and lanthanum carbonate tetrahydrate were measured using the methodology described below:
The equivalent of 1 g elemental lanthanum as either lanthanum hydroxycarbonate or as lanthanum carbonate tetrahydrate was added to 500 mL of 0.1N HCl at 37° C. and adjusted to pH 1 with HCl which contained 300 mg of phosphorus. The preparation was stirred and sampled at regular intervals. This sample was filtered and the filtrate measured for phosphorus content using a Sigma Diagnostics Kit for Inorganic Phosphorus determination. The loss of phosphorus from the filtrate represents the amount of phosphorus bound by lanthanum and precipitated then retained on the filter.

O.O.O.O.O=C([O-])[O-].O=C([O-])[O-].O=C([O-])[O-].[La+3].[La+3] [lanthanum carbonate tetrahydrate, Lanthanum carbonate tetrahydrate]
Plasma exposure to lanthanum [1]: similar

O=C([O-])[O-].[La+3].[OH-] [lanthanum hydroxycarbonate]
rates of in vitro phosphate binding as compared to lanthanum carbonate tetrahydrate ([2]; dosed at the same level of elemental lanthanum): improved rates of in vitro phosphate binding | more effective at binding phosphate in vitro, compared to lanthanum carbonate tetrahydrate ([2]; pH 1, same level of elemental lanthanum): approximately 50%
